≈ marks a conversion by molar mass, not a printed value. Counter-ions that a name gives are not always drawn.
Experiments:
[1] = molecular target: T1, MAO-A (Homo sapiens, UniProt P21397); experiment: MAO-A inhibition, standard in-vitro assay; type: biochemical; details: human liver enzyme expressed in yeast
T1 construct: made in house; host or cells: yeast
T1 sequence (P21397 1-527): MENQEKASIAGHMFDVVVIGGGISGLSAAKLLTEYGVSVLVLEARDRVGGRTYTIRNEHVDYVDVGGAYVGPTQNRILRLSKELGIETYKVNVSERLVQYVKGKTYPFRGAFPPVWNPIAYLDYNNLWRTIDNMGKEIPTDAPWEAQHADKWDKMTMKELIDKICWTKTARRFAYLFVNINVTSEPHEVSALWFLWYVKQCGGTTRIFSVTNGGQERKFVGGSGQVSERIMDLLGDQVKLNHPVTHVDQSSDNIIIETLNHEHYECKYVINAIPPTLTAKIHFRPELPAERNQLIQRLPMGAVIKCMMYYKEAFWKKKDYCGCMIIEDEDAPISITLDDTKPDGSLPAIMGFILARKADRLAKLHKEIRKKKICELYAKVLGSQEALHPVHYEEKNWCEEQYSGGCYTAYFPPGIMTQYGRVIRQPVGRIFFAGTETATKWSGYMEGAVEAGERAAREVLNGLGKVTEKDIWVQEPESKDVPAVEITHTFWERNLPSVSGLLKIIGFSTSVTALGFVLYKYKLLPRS
Procedure: Inhibition of mono-amine oxidase (MAO) is a known potential side effect of oxazolidinone antibiotics (see for example WO 03/072575).
The activity of the compounds of the invention against MAO-A was tested using a standard in-vitro assay based on human liver enzyme expressed in yeast as described in Biochem. Biophys. Res. Commun. 1991, 181, 1084-1088. Compounds of the invention typically give Ki values of >5 μM when measured in such an assay as above.

[2] = physchem; details: pH 7.4, aqueous buffer, thermodynamic from solid
Source text: It will be understood that parameters such as solubility may be measured by any suitable technique known in the art.

[3] = system: Staphylococcus aureus MSQS; experiment: MIC, agar-dilution, Staphylococcus aureus MSQS; type: cell-based; details: Staphylococcus aureus MSQS (methicillin sensitive and quinolone sensitive), 10^4 CFU/spot, 37° C., 24 hours
Procedure: (§1) The following results were obtained on a standard in-vitro test system. The activity is described in terms of the minimum inhibitory concentration (MIC) determined by the agar-dilution technique with an inoculum size of 10^4 CFU/spot. Typically, compounds are active in the range 0.01 to 256 μg/ml.
(§2) Staphylococci were tested on agar, using an inoculum of 10^4 CFU/spot and an incubation temperature of 37° C. for 24 hours—standard test conditions for the expression of methicillin resistance.

[4] = system: Staphylococcus aureus MRQR; experiment: MIC, agar-dilution, Staphylococcus aureus MRQR; type: cell-based; details: Staphylococcus aureus MRQR (methicillin resistant and quinolone resistant), 10^4 CFU/spot, 37° C., 24 hours
Procedure: as §1, §2

[5] = system: Streptococcus pneumoniae; experiment: MIC, agar-dilution, Streptococcus pneumoniae; type: cell-based; details: agar with 5% defibrinated horse blood, 37° C., 5% carbon dioxide, 48 hours
Procedure: as §1
(§3) Streptococci and enterococci were tested on agar supplemented with 5% defibrinated horse blood, an inoculum of 10^4 CFU/spot and an incubation temperature of 37° C. in an atmosphere of 5% carbon dioxide for 48 hours—blood is required for the growth of some of the test organisms. Fastidious Gram negative organisms were tested in Mueller-Hinton broth, supplemented with hemin and NAD, grown aerobically for 24 hours at 37° C., and with an innoculum of 5×10^4 CFU/well.

[6] = system: Haemophilus influenzae; experiment: MIC, Haemophilus influenzae; type: cell-based; details: Mueller-Hinton broth with hemin and NAD, 24 hours, 37° C.
Procedure: as §1, §3

[7] = system: Moraxella catarrhalis; experiment: MIC, Moraxella catarrhalis; type: cell-based; details: Mueller-Hinton broth with hemin and NAD, 24 hours, 37° C.
Procedure: as §1, §3

[8] = system: Linezolid Resistant Streptococcus pneumoniae; experiment: MIC, Linezolid Resistant Streptococcus pneumoniae; type: cell-based
Procedure: as §1, §3

| SMILES | Ki [1] | melting point | further results |
| --- | --- | --- | --- |
| O=Cc1ccc(-c2ccc(N3C[C@H](Cn4ccnn4)OC3=O)cc2F)cn1 [Ref Example 2, 5-{2-Fluoro4-[(5R)-2-oxo-5-(1H-1,2,3-triazol-1-ylmethyl)-1,3-oxazolidin-3-yl]phenyl}pyridine-2-carbaldehyde] | 0.7 µM | > 180 °C (dec.) |  |
| O=C1O[C@@H](Cn2ccnn2)CN1c1ccc(-c2ccc(/C=N/O)nc2)c(F)c1 [Ref Example 3, 5-{2-Fluoro-4-[(5R)-2-oxo-5-(1H-1,2,3-triazol-1-ylmethyl)-1,3-oxazolidin-3-yl]phenyl}pyridine-2-carbaldehyde oxime] | < 0.3 µM | > 230 °C (dec.) |  |
| CC(C)(C)O/N=C/c1ccc(-c2ccc(N3C[C@H](Cn4ccnn4)OC3=O)cc2F)cn1 [Example 3] | 6.4 µM | 192 °C |  |
| O=C(CC1CCNCC1)c1ccc(-c2ccc(N3C[C@H](Cn4ccnn4)OC3=O)cc2F)cn1 (as salt: hydrochloride) [Example 6, (5R)-3-{3-Fluoro-4-[6(piperidin-4-ylacetyl)pyridin-3-yl]phenyl}-5-(1H-1,2,3-triazol-1-ylmethyl)-1,3-oxazolidin-2-one] |  | > 196 °C (dec.) |  |
| O=C(c1ccc(-c2ccc(N3C[C@H](Cn4ccnn4)OC3=O)cc2F)cn1)C1CCNCC1 (as salt: hydrochloride) [Example 8, (5R)-3-{3-Fluoro-4-[6-(piperidin-4-ylcarbonyl)pyridin-3-yl]phenyl}-5-(1H-1,2,3-triazol-1-ylmethyl)-1,3-oxazolidin-2-one] |  | > 275 °C (dec.) |  |
| CC(=O)c1ccc(-c2ccc(N3C[C@H](Cn4ccnn4)OC3=O)cc2F)cn1 [Ref Example 1, (5R)-3-[4-(6-Acetylpyridin-3-yl)-3-fluorophenyl]-5-(1H-1,2,3-triazol-1-ylmethyl)-1,3-oxazolidin-2-one] | 0.72 µM | > 210 °C (dec.) |  |
| CC(=O)NC[C@H]1CN(c2ccc(-c3ccc(-c4nnn(C)n4)nc3)c(F)c2)C(=O)O1 [Reference Example 4] |  |  | solubility thermodynamic [2]: 35.1 µM (≈ 14.4 µg/mL) |
| Cn1nnc(-c2ccc(-c3ccc(N4C[C@H](Cn5ccnn5)OC4=O)cc3F)cn2)n1 [Reference Example 5, (5R)-3-(3-Fluoro-4-(6-(2-methyl-2H-tetrazol-5-yl)pyrid-3-yl)phenyl)-5-(1H-1,2,3-triazol-1-ylmethyl)-1,3-oxazolidin-2-one] |  |  | solubility thermodynamic [2]: < 7.1 µM |
| O=C(CCCN1CCOCC1)c1ccc(-c2ccc(N3C[C@H](Cn4ccnn4)OC3=O)cc2F)cn1 [Example 2, (5R)-3-{3-Fluoro-4-[6-(4-morpholin-4-ylbutanoyl)pyridin-3-yl]phenyl}-5-(1H-1,2,3-triazol-1-ylmethyl)-1,3-oxazolidin-2-one] | 15 µM |  |  |
| O=C(c1ccc(-c2ccc(N3C[C@H](Cn4ccnn4)OC3=O)cc2F)cn1)C1CNC1 (as salt: hydrochloride) [Example 9, (5R)-3-{4-[6-(Azetidin-3-ylcarbonyl)pyridin-3-yl]-3-fluorophenyl}-5-(1H-1,2,3-triazol-1-ylmethyl)-1,3-oxazolidin-2-one] |  | > 90 °C (dec.) |  |

Now from value to compound, other results behind:

| Ki [1] | melting point | SMILES | further results |
| --- | --- | --- | --- |
|  | 82 to 83 °C | CC(C)c1nccn1CC(=O)c1ccc(-c2ccc(N3C[C@H](Cn4ccnn4)OC3=O)cc2F)cn1 [Example 12] |  |
|  | > 240 °C (dec.) | Cc1nccn1CC(=O)c1ccc(-c2ccc(N3C[C@H](Cn4ccnn4)OC3=O)cc2F)cn1 (as salt: hydrochloride) [Example 4] |  |
|  | 81 °C | CCCc1nccn1CC(=O)c1ccc(-c2ccc(N3C[C@H](Cn4ccnn4)OC3=O)cc2F)cn1 [Example 11] |  |
|  | 77 to 79 °C | CCc1nccn1CC(=O)c1ccc(-c2ccc(N3C[C@H](Cn4ccnn4)OC3=O)cc2F)cn1 [Example 14, (5R)-3-(4-{6-[(2-Ethyl-1H-imidazol-1-yl)acetyl]pyridin-3-yl}-3-fluorophenyl)-5-(1H-1,2,3-triazol-1-ylmethyl)-1,3-oxazolidin-2-one] |  |
|  | 78 to 80 °C | COCc1nccn1CC(=O)c1ccc(-c2ccc(N3C[C@H](Cn4ccnn4)OC3=O)cc2F)cn1 [Example 15, (5R)-3-[3-Fluoro-4-(6-{[2-(methoxymethyl)-1H-imidazol-1-yl]acetyl}pyridin-3-yl)phenyl]-5-(1H-1,2,3-triazol-1-ylmethyl)-1,3-oxazolidin-2-one] |  |
| > 5 µM |  | O=C(Cn1ccnc1)c1ccc(-c2ccc(N3C[C@H](Cn4ccnn4)OC3=O)cc2F)cn1 [Example 1, (5R)-3-{3-Fluoro-4-[6-(1H-imidazol-1-ylacetyl)pyridin-3-yl]phenyl}-5-(1H-1,2,3-triazol-1-ylmethyl)-1,3-oxazolidin-2-one] | solubility [2]: 1450 µM (≈ 650 µg/mL); MIC [3]: 0.25 µg/mL (≈ 0.559 µM); MIC [4]: 0.25 µg/mL (≈ 0.559 µM); MIC [5]: 0.13 µg/mL (≈ 0.291 µM); MIC [6]: 2 µg/mL (≈ 4.47 µM); MIC [7]: 0.5 µg/mL (≈ 1.12 µM); MIC [8]: 0.5 µg/mL (≈ 1.12 µM) |
|  | > 230 °C (dec.) | O=C(Cn1ccnc1)c1ccc(-c2ccc(N3C[C@H](Cn4ccnn4)OC3=O)cc2F)cn1 (as salt: hydrochloride) [Example 1, (5R)-3-{3-Fluoro-4-[6-(1H-imidazol-1-ylacetyl)pyridin-3-yl]phenyl}-5-(1H-1,2,3-triazol-1-ylmethyl)-1,3-oxazolidin-2-one] |  |
|  | > 217 °C (dec.) | Cc1cn(CC(=O)c2ccc(-c3ccc(N4C[C@H](Cn5ccnn5)OC4=O)cc3F)cn2)cn1 (as salt: hydrochloride) [Example 5, (5R)-3-(3-Fluoro-4-{6-[(4-methyl-1H-imidazol-1-yl)acetyl]pyridin-3-yl}phenyl)-5-(1H-1,2,3-triazol-1-ylmethyl)-1,3oxazolidin-2-one] |  |
|  | 78 °C | Cc1cn(CC(=O)c2ccc(-c3ccc(N4C[C@H](Cn5ccnn5)OC4=O)cc3F)cn2)c(C)n1 [Example 13, (5R)-3-(4-{6-[(2,4-Dimethyl-1H-imidazol-1-yl)acetyl]pyridin-3-yl}-3-fluorophenyl)-5-(1H-1,2,3-triazol-1-ylmethyl)-1,3-oxazolidin-2-one] |  |
